We go through 5 molecules from ChEMBL document CHEMBL1933062, “Synthesis of purine N9-[2-hydroxy-3-O-(phosphonomethoxy)propyl] derivatives and their side-chain modified analogs as potential antimalarial agents” (Bioorg Med Chem, 2012).

Assay [1] addresses T1, Hypoxanthine-guanine phosphoribosyltransferase (Homo sapiens) (UniProt P00492).
T1 sequence (whole entry): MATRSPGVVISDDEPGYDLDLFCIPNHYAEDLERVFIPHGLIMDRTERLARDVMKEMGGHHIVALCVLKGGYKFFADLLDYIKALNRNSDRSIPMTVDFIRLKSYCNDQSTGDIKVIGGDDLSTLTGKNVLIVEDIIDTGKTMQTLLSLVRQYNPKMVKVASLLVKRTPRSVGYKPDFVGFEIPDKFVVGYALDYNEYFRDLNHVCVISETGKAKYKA
As to the kind of experiment: Inhibition of human HGPRT at >= 100 uM by spectrophotometric analysis in absence of PPi.

Assay [2] has as its system Plasmodium falciparum. As to the kind of experiment: Inhibition of Plasmodium falciparum HGPRT at >= 100 uM by spectrophotometric analysis in presence of 52 uM PPi.
Assay [3] has as its system Plasmodium vivax. In words: Inhibition of Plasmodium vivax HGPRT at >= 100 uM by spectrophotometric analysis in absence of PPi.
The target in assay [4] is T1, Hypoxanthine-guanine phosphoribosyltransferase (Homo sapiens). As to the kind of experiment: Inhibition of human HGPRT at >= 100 uM by spectrophotometric analysis in presence of 52 uM PPi.
Assay [5] has as its system Plasmodium vivax. In words: Inhibition of Plasmodium vivax HGPRT at >= 100 uM by spectrophotometric analysis in presence of 52 uM PPi.
In assay [6] the test system is Plasmodium falciparum. As to the kind of experiment: Inhibition of Plasmodium falciparum HGPRT at >= 100 uM by spectrophotometric analysis in absence of PPi.
Assay [7] in a line: Selectivity ratio of Ki for human HGPRT to Ki for Plasmodium vivax HGPRT.
Assay [8] addresses T2, Hypoxanthine-guanine phosphoribosyltransferase (Homo sapiens, UniProt P00492).
T2 sequence (P00492 whole entry): T1 sequence (whole entry)
In words: (§1) Inhibition of human HGPRT by spectrophotometric analysis in absence of PPi.

Assay [9] is described as follows: (§2) Inhibition of Plasmodium falciparum HGPRT by spectrophotometric analysis in absence of PPi.
The nature of assay [10]: (§3) Inhibition of Plasmodium falciparum HGPRT by spectrophotometric analysis in presence of 52 uM PPi.
Assay [11] in a line: (§4) Inhibition of Plasmodium vivax HGPRT by spectrophotometric analysis in presence of 52 uM PPi.
Assay [12] is described as follows: Selectivity ratio of Ki for human HGPRT to Ki for Plasmodium falciparum HGPRT.
A short description of assay [13]: (§5) Inhibition of Plasmodium vivax HGPRT by spectrophotometric analysis in absence of PPi.
Assay [14] has as its system Plasmodium falciparum. In words: Inhibition of Plasmodium falciparum HGPRT at >= 30 uM by spectrophotometric analysis in presence of 52 uM PPi.
Assay [15] addresses T1, Hypoxanthine-guanine phosphoribosyltransferase (Homo sapiens). As to the kind of experiment: Inhibition of human HGPRT at >= 30 uM by spectrophotometric analysis in presence of 52 uM PPi.
Assay [16] concerns Plasmodium vivax. In words: Inhibition of Plasmodium vivax HGPRT at >= 30 uM by spectrophotometric analysis in presence of 52 uM PPi.
The target in assay [17] is T1, Hypoxanthine-guanine phosphoribosyltransferase (Homo sapiens). Described as §1.
In assay [18] the test system is Plasmodium falciparum. The assay is described as §2.
Assay [19] deals with T1, Hypoxanthine-guanine phosphoribosyltransferase (Homo sapiens). In words: Inhibition of human HGPRT by spectrophotometric analysis in presence of 52 uM PPi.
In assay [20] the test system is Plasmodium falciparum. Described as §3.
The test system of assay [21] is Plasmodium vivax. Described as §4.
Assay [22] concerns Plasmodium vivax. Described as §5.
Assay [23] concerns the target T1, Hypoxanthine-guanine phosphoribosyltransferase (Homo sapiens). As to the kind of experiment: Inhibition of human HGPRT at >= 30 uM by spectrophotometric analysis in absence of PPi.

Calls of active or inactive are those of the source. The calls are words filed in the database; no cut-off is given here. Where only a bound is given, the exact number is not on record here.

As to `O=C(O)COC(COCP(=O)(O)O)Cn1cnc2c(=O)[nH]cnc21` (stereo not given), the inhibition entry in assay [1], in assay [2], in [3], in assay [4], in assay [5] and in assay [6] was “inactive” each time.
For `Nc1nc2c(ncn2CC(O)COCP(=O)(O)O)c(=O)[nH]1` (stereo not given), the Ratio Ki in assay [7] worked out at 0.4; in [12] it was 2.8. Further, the Ki (as a rule, the equilibrium dissociation constant of an inhibitor or competing ligand from its target) in [8] came out at 4 µM; in assay [9] it was 1.4 µM; in assay [10], 0.5 µM; in assay [11], 2.8 µM; in assay [13], 10 µM.
For `Nc1nc2c(ncn2CC(COCP(=O)(O)O)OCC(=O)O)c(=O)[nH]1` (stereo not given), the Ratio Ki came to 0.2 in [7] and 1 in [12]. The Ki in assay [8] worked out at 5 µM; in assay [9], 5 µM; in assay [13] it was 27 µM. Also, the inhibition entry in assay [14], in assay [15] and in assay [16] was “inactive” in each case.
Consider `O=c1[nH]cnc2c1ncn2/C=C\COCP(=O)(O)O`, for which the inhibition entry in [17], in assay [18], in [19], in assay [20], in assay [21] and in [22] was “inactive” each time.
In the case of `O=c1[nH]cnc2c1ncn2CC(O)COCP(=O)(O)O` (stereo not given), the Ratio Ki in assay [7] was more than 25; in assay [12], more than 50. In addition, the inhibition constant (Ki) in assay [9] was 2 µM; in assay [10], 0.3 µM; in assay [11] it was 0.9 µM; in [13], 5 µM. The inhibition entry in assay [15] and in assay [23] was “inactive” in each case.
